Measurements: PubChem BioAssay (NCI)
“And” between values parts separate entries of the source, which are not always exact repeats. Equal entries are not always repeated.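 96-well plates; 48 h exposure; 5 concentrations. Endpoints by linear interpolation between flanking doses. Not reached: highest tested concentration assigned. The concentration for 50% growth inhibition is given as GI50. At the TGI there is no net growth.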

Tests used:
Experiment in all cases: DTP human tumour cell line panel, 48 h
UO-31 renal = test system: UO-31 renal
SF-539 CNS = test system: SF-539 CNS
HCT-116 colon = test system: HCT-116 colon
UACC-257 melanoma = test system: UACC-257 melanoma
ACHN renal = test system: ACHN renal
HCC-2998 colon = test system: HCC-2998 colon
SN12C renal = test system: SN12C renal
PC-3 prostate = test system: PC-3 prostate
SW-620 colon = test system: SW-620 colon
SF-268 CNS = test system: SF-268 CNS
HS 578T breast = test system: HS 578T breast

Row | Structure (SMILES) | TGI (UO-31 renal) [µM] | TGI (SF-539 CNS) [µM] | TGI (HCT-116 colon) [µM] | TGI (UACC-257 melanoma) [µM] | TGI (ACHN renal) [µM] | TGI (HCC-2998 colon) [µM] | TGI (SN12C renal) [µM] | TGI (PC-3 prostate) [µM] | TGI (SW-620 colon) [µM] | TGI (SF-268 CNS) [µM] | TGI (HS 578T breast) [µM] | GI50 (SF-539 CNS) | GI50 (UACC-257 melanoma) | GI50 (ACHN renal) | GI50 (HCC-2998 colon) | GI50 (PC-3 prostate) | GI50 (SW-620 colon) | GI50 (HS 578T breast) [µM]
1 | CC#CC(O)(C(=O)OC1CC(C)N(C)C(C)(C)C1)C1CCCC1 (centres undefined) | > 100 | > 100 | > 100 | > 100 | > 100 | > 100 | > 100 | > 100 | > 100 | > 100 | – | – | – | – | – | – | – | –
2 | O=C(CC(C(=O)c1ccco1)c1ccco1)c1ccco1 (centres undefined) | 92.5 | > 100 | > 100 | > 100 | > 100 | > 100 | > 100 | – | > 100 | > 100 | > 100 | – | – | – | – | – | – | –
3 | O=C1c2cccc(O)c2C(=O)c2c(O)cc(CO)cc21 | – | – | > 100 | > 100 | > 100 | > 100 | > 100 | – | > 100 | > 100 | – | – | – | – | – | – | – | –
4 | O=[N+]([O-])/C(Cl)=C(\NCCN/C(C(Cl)=C(Cl)Cl)=C(/Cl)[N+](=O)[O-])C(Cl)=C(Cl)Cl | > 100 | > 100 | > 100 | – | > 100 | > 100 | > 100 | > 100 | > 100 | > 100 | – | – | – | – | – | – | – | –
5 | C=CCN1C(=O)/C(=C/c2ccc(C)cc2)N=C1SC1OC(COC(C)=O)C(OC(C)=O)C(OC(C)=O)C1OC(C)=O (centres undefined) | – | > 100 | > 100 | > 100 | > 100 | > 100 | > 100 | > 100 | > 100 | – | – | 16.7 µM and 41.6 µM | > 73 µM and 32.9 µM | > 27.6 µM and 67.3 µM | > 100 µM and 35.6 µM | > 100 µM and 34.2 µM | > 100 µM and 39.1 µM | –
6 | CN1CCN(C2=C(Cl)C3(OCCS3)C(F)(F)C2(F)F)CC1 (centres undefined) | > 100 | > 100 | > 100 | > 100 | > 100 | – | > 100 | – | > 100 | > 100 | > 100 | – | – | – | – | – | – | –
7 | CC(C)C(N)C(=O)NC(CCC(=O)NCCCCC(N)C(=O)NCCCNc1ccc([N+](=O)[O-])c2[nH]c3ccccc3c(=O)c12)C(N)=O (centres undefined) | > 100 | – | > 100 | > 100 | > 100 | > 100 | – | > 100 | > 100 | > 100 | – | – | – | – | – | – | – | –
8 | S=C1NC2=C(CSC/C2=C\c2ccccc2)C(c2ccccc2)N1 (centres undefined) | > 100 | > 100 | > 100 | 58.8 | > 100 | > 100 | > 100 | > 100 | > 100 | > 100 | – | – | – | – | – | – | – | –
9 | CC(=O)Oc1c(C)c(C)c2c(c1C)CCC(C)(CC(=O)OCCCCCCCCCCC[P+](c1ccccc1)(c1ccccc1)c1ccccc1)O2 (centres undefined) | – | 1.47 | – | 0.78 | – | – | – | 0.976 | 1.33 | – | 3.28 | 0.411 µM | 0.268 µM | – | – | 0.194 µM | 0.315 µM | 0.413
10 | COc1cc([N+](=O)[O-])c(OC)c2c(Nc3ccc(S(=O)(=O)O)c4cc(S(=O)(=O)O)cc(S(=O)(=O)O)c34)cc(C)nc12 | > 100 | > 100 | > 100 | > 100 | – | – | > 100 | > 100 | > 100 | > 100 | > 100 | – | – | – | – | – | – | –
11 | COc1cccc2c1OCC1Cc3ccccc3OC21 (centres undefined) | > 100 | > 100 | > 100 | 65.3 | – | > 100 | 70.1 | > 100 | > 100 | > 100 | – | – | – | – | – | – | – | –
12 | O=C(O)/C=C\C(=O)Nc1ccc(S(=O)(=O)c2ccc(NC(=O)/C=C\C(=O)O)cc2)cc1 | > 100 | > 100 | > 100 | > 100 | > 100 | – | > 100 | – | > 100 | > 100 | – | – | – | – | – | – | – | –
13 | C[C@H]1OC(=O)[C@@H]2N=NN(Cc3ccccc3)[C@H]12 | > 100 | > 100 | > 100 | – | > 100 | > 100 | > 100 | > 100 | > 100 | > 100 | – | – | – | – | – | – | – | –
14 | O=C(NN1C(=O)CSC1c1cccc(F)c1)c1ccncc1 (centres undefined) | > 100 | > 100 | – | > 100 | > 100 | > 100 | > 100 | – | > 100 | > 100 | – | – | – | – | – | – | – | –
15 | COc1cc(C2c3cc4c(cc3[C@@H](Nc3ccc5c(c3)OCO5)C3COC(=O)[C@H]23)OCO4)cc(OC)c1O (some centres undefined) | 9.7 | 2.41 | 15.7 | 8.38 | – | 3.42 | – | – | > 37.6 | 30 | – | – | – | – | – | – | – | –
16 | CSc1nc2c(ncn2C2OC(CO)C(O)C(O)C2O)c(=O)[nH]1 (centres undefined) | > 100 | > 100 | > 100 | > 100 | – | > 100 | > 100 | – | > 100 | > 100 | – | – | – | – | – | – | – | –
17 | CC1(C)OC2COC3([C@@H]4OC(C)(C)O[C@@H]4CO)OC(C)(C)OC3C2O1 (some centres undefined) | > 100 | > 100 | > 100 | > 100 | > 100 | > 100 | > 100 | > 100 | > 100 | – | – | – | – | – | – | – | – | –
